Experimental data reported in ChEMBL document CHEMBL3085703, “Synthetic cannabinoid quinones: preparation, in vitro antiproliferative effects and in vivo prostate antitumor activity” (Eur J Med Chem, 2013).
The source made the active and inactive calls. The calls are words filed in the database; no cut-off is given here.

Assays:
Cannabinoid receptor 1 = Cannabinoid receptor 1 (Homo sapiens, UniProt P21554); experiment: Displacement of [3H]CP55940 from human cannabinoid CB1 receptor expressed in HEK293 EBNA cells after 90 mins by liquid scintillation counting; format: cell-based
Cannabinoid receptor 2 = Cannabinoid receptor 2 (Homo sapiens, UniProt P34972); experiment: Displacement of [3H]CP55940 from human cannabinoid CB2 receptor expressed in HEK293 EBNA cells after 90 mins by liquid scintillation counting; format: cell-based
PC-3 [1] = experiment: Induction of apoptosis in human PC3 cells assessed as viable cells at IC50 after 24 hrs using annexin V-FITC/PI staining by flow cytometric analysis (reference value: 9.96%); format: functional
PC-3 [2] = experiment: Induction of apoptosis in human PC3 cells assessed as late apoptotic cells at IC50 after 24 hrs using annexin V-FITC/PI staining by flow cytometric analysis (reference value: 4.45%); format: functional
LNCaP [3] = experiment: Antiproliferative activity against human LNCAP cells after 48 hrs by MTT assay in presence of antioxidant N-acetylcysteine; format: functional, cell-based
HepG2 = experiment: Antiproliferative activity against human HepG2 cells after 48 hrs by MTT assay; format: functional, cell-based; settings: HepG2, 48 h
PC-3 [4] = experiment: Induction of apoptosis in human PC3 cells assessed as early apoptotic cells at IC50 after 24 hrs using annexin V-FITC/PI staining by flow cytometric analysis (reference value: 1.51%); format: functional
LNCaP [5] = experiment: Antiproliferative activity against human LNCAP cells after 48 hrs by MTT assay in presence of CB2 antagonist SR144528; format: functional, cell-based
PC-3 [6] = experiment: Cell cycle arrest in human PC3 cells assessed as accumulation at sub-G0 phase at IC50 after 24 hrs by flow cytometry analysis (reference value: 0.12%); format: functional
LNCaP [7] = experiment: Antiproliferative activity against human LNCAP cells after 48 hrs by MTT assay in presence of PPARgamma antagonist GW9662; format: functional, cell-based
PC-3 [8] = experiment: Cell cycle arrest in human PC3 cells assessed as accumulation at G1/G0 phase at IC50 after 24 hrs by flow cytometry analysis (reference value: 70%); format: functional
LNCaP [9] = experiment: Cell cycle arrest in human LNCAP cells assessed as accumulation at G2 phase at IC50 after 24 hrs by flow cytometry analysis (reference value: 5.62%); format: functional
LNCaP [10] = experiment: Induction of apoptosis in human LNCAP cells assessed as viable cells at IC50 after 24 hrs using annexin V-FITC/PI staining by flow cytometric analysis (reference value: 12.33%); format: functional
LNCaP [11] = experiment: Antiproliferative activity against human LNCAP cells after 48 hrs by MTT assay; format: functional, cell-based
LNCaP [12] = experiment: Cell cycle arrest in human LNCAP cells assessed as accumulation at S phase at IC50 after 24 hrs by flow cytometry analysis (reference value: 3.90%); format: functional
LNCaP [13] = experiment: Cell cycle arrest in human LNCAP cells assessed as accumulation at G1/G0 phase at IC50 after 24 hrs by flow cytometry analysis (reference value: 91.30%); format: functional
LNCaP [14] = experiment: Antitumor activity against human LNCAP cells xenografted in BALB/c OlaHsd-Foxn1nu mouse assessed as tumor growth inhibition at 2 mg/kg, ip qd for 15 days; format: functional, organism-based; parameters: dose 2 mg/kg
PC-3 [15] = experiment: Antiproliferative activity against human PC3 cells after 48 hrs by MTT assay; format: functional, cell-based; settings: PC-3, 48 h
LNCaP [16] = experiment: Antiproliferative activity against human LNCAP cells after 48 hrs by MTT assay in presence of CB1 antagonist SR141716; format: functional, cell-based
LNCaP [17] = experiment: Cell cycle arrest in human LNCAP cells assessed as accumulation at sub-G0 phase at IC50 after 24 hrs by flow cytometry analysis (reference value: 0.18%); format: functional
PC-3 [18] = experiment: Cell cycle arrest in human PC3 cells assessed as accumulation at S phase at IC50 after 24 hrs by flow cytometry analysis (reference value: 6.97%); format: functional
LNCaP [19] = experiment: Induction of apoptosis in human LNCAP cells assessed as early apoptotic cells at IC50 after 24 hrs using annexin V-FITC/PI staining by flow cytometric analysis (reference value: 1.24%); format: functional
PC-3 [20] = experiment: Antitumor activity against human PC3 cells xenografted in BALB/c OlaHsd-Foxn1nu mouse assessed as tumor growth inhibition at 2 mg/kg, ip qd for 15 days; format: functional; settings: PC-3, ip, 360 h, route intraperitoneal, read-out: TGI
PC-3 [21] = experiment: Cell cycle arrest in human PC3 cells assessed as accumulation at G2 phase at IC50 after 24 hrs by flow cytometry analysis (reference value: 22.90%); format: functional
LNCaP [22] = experiment: Induction of apoptosis in human LNCAP cells assessed as late apoptotic cells at IC50 after 24 hrs using annexin V-FITC/PI staining by flow cytometric analysis (reference value: 2.96%); format: functional

Chain of Cannabinoid receptor 2 (P34972 whole entry): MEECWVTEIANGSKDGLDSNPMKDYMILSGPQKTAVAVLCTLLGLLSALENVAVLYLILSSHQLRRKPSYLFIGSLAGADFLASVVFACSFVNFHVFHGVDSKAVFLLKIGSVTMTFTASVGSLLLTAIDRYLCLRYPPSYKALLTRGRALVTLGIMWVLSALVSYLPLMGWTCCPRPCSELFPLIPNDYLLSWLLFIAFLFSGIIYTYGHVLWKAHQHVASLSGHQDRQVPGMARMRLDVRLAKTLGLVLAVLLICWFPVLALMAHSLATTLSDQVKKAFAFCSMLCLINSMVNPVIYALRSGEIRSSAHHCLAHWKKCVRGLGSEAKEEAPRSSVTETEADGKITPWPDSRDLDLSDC
Chain of Cannabinoid receptor 1 (P21554 whole entry): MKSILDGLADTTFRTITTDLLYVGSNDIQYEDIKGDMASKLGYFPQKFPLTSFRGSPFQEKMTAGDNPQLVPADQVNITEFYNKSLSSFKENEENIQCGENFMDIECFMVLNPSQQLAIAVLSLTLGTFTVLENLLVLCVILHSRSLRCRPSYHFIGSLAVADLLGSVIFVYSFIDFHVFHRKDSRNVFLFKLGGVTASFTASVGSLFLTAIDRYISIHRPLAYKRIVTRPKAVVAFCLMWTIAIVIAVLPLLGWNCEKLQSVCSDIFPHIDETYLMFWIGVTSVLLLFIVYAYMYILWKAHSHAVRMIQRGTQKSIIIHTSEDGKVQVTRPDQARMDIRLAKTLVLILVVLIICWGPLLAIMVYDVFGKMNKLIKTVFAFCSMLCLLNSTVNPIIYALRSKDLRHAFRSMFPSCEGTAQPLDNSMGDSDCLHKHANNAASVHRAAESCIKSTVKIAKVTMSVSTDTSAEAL

## CCCCCCC(C)(C)C1=CC(=O)C2=C(OC(C)(C)c3cn(CC)nc32)C1=O
Cannabinoid receptor 1
  Ki: 8.52 µM
Cannabinoid receptor 2
  Ki: 3.66 µM

## CCCCCCC(C)(C)C1=CC(=O)C2=C(OC(C)(C)c3c[nH]nc32)C1=O
PC-3 [1]
  Activity: 5.97%
PC-3 [2]
  Activity: 6.91%
LNCaP [3]
  Activity: inactive
HepG2
  IC50: 30 µM
PC-3 [4]
  Activity: 3.98%
Cannabinoid receptor 1
  Ki: 0.324 µM
LNCaP [5]
  Activity: Active
PC-3 [6]
  Activity: 2.3%
LNCaP [7]
  Activity: inactive
PC-3 [8]
  Activity: 58.68%
LNCaP [9]
  Activity: 9.24%
LNCaP [10]
  Activity: 12.52%
LNCaP [11]
  IC50: 15 µM
LNCaP [12]
  Activity: 7.09%
LNCaP [13]
  Activity: 74.68%
LNCaP [14]
  TGI: Active
Cannabinoid receptor 2
  Ki: 0.134 µM
PC-3 [15]
  IC50: 15 µM
LNCaP [16]
  Activity: inactive
LNCaP [17]
  Activity: 8.9%
PC-3 [18]
  Activity: 10.09%
LNCaP [19]
  Activity: 5.86%
PC-3 [20]
  inhibition in vivo at 2 mg/kg: 40%
PC-3 [21]
  Activity: 30.24%
LNCaP [22]
  Activity: 9.59%

## CCCCCCC(C)(C)C1=CC(=O)C2=C(OC(C)(C)c3cn(C)nc32)C1=O
Cannabinoid receptor 1
  Ki: 14.2 µM
Cannabinoid receptor 2
  Ki: 0.672 µM
